Where two headings read alike, the source gives them in different places.
Assays:
[1] = fasted state; cited from earlier work
[2] = cited from earlier work
[3] = format: in vivo, human; conditions: for AUC(0-t): AUC0–23 hours; for AUC(0-inf): AUC0–∞; for Tmax: median (range)
[4] = system: Bruton's tyrosine kinase (BTK); conditions: cited from earlier work
[5] = male, human, plasma, oral, 140 mg, placebo phase, 140‐mg ibrutinib dose, geometric mean (geometric CV)
[6] = male, human, plasma, oral, itraconazole phase, dose‐adjusted to a 140‐mg dose, geometric mean (geometric CV)
[7] = male, human, plasma, oral, itraconazole phase, unadjusted, 15‐mg ibrutinib dose, geometric mean (geometric CV)
[8] = itraconazole phase (15 mg, unadjusted) vs placebo phase (140 mg)
[9] = itraconazole phase (dose‐adjusted to 140 mg) vs placebo phase
[10] = itraconazole phase vs placebo phase
[11] = itraconazole phase, dose‐adjusted to a 140‐mg dose, geometric mean (geometric CV)
[12] = itraconazole phase, unadjusted, 15‐mg ibrutinib dose, geometric mean (geometric CV)
[13] = placebo phase, 140‐mg ibrutinib dose, geometric mean (geometric CV)
[14] = unadjusted, 15 mg ibrutinib during itraconazole, 140 mg during placebo

C=CC(=O)N1CCC[C@@H](n2nc(-c3ccc(Oc4ccccc4)cc3)c3c(N)ncnc32)C1 [Ibrutinib, ibrutinib, reference compound]
Mean oral bioavailability [1]: about 3%
Enhancement of bioavailability by food [2]: about twofold
Increase of AUC by ketoconazole ([2]; fasted state, healthy volunteers): 24 fold
Increase of AUC by grapefruit juice ([2]; fed conditions, healthy adults): 2.2 fold
Cmax ([3]; male, human, plasma, oral): 192 ng/mL
AUC(0-t) [3, 5]: 74.4 ng·h/mL
AUC(0-inf) [3, 5]: 76.5 ng·h/mL
AUC(0-t) [3, 6]: 755 ng·h/mL
AUC(0-t) [3, 7]: 80.9 ng·h/mL
AUC(0-inf) [3, 6]: 764 ng·h/mL
AUC(0-inf) [3, 7]: 81.9 ng·h/mL
Cmax ([3]; male, human, plasma, po): 20.6 ng/mL
Cmax ([3]; male, human, plasma, po, 140 mg): 22 ng/mL

Nc1ncnc2c1c(-c1ccc(Oc3ccccc3)cc1)nn2[C@@H]1CCCN(C(=O)C(O)CO)C1 (stereo partly shown) [PCI‐45227]
Inhibitory activity toward BTK relative to parent ibrutinib [4]: about 15 times lower
AUC0–23 hours geometric mean ratio (90% CI) [3, 8]: 0.10 (0.08, 0.11)
AUC0–∞ geometric mean ratio (90% CI) [3, 8]: 0.10 (0.09, 0.12)
Cmax geometric mean ratio (90% CI) [3, 8]: 0.07 (0.06, 0.09)
AUC0–23 hours geometric mean ratio (90% CI) [3, 9]: 0.91 (0.78, 1.07)
AUC0–∞ geometric mean ratio (90% CI) [3, 9]: 0.97 (0.82, 1.16)
Cmax geometric mean ratio (90% CI) [3, 9]: 0.68 (0.59, 0.79)
t1/2 geometric mean ratio (90% CI) ([3]; itraconazole phase (dose‐adjusted) column vs placebo phase): 1.3 (1.10, 1.46)
t1/2 ([3]; itraconazole phase (dose‐adjusted) column, geometric mean (geometric CV)): 8.1 (0.28) hour
PCI‐45227/Ibrutinib AUC0‐∞ ratio, geometric mean ratio (90% CI) [3, 10]: 0.10 (0.08, 0.12)
t1/2 geometric mean ratio (90% CI) [3, 10]: 1.3 (1.10, 1.46)
AUC0–23 hours [3, 11]: 214.3 (0.36) ng·hour/mL
AUC0–∞ [3, 11]: 256.0 (0.42) ng·hour/mL
Cmax [3, 11]: 21.2 (0.28) ng/mL
AUC0–23 hours [3, 12]: 23.0 (0.36) ng·hour/mL
AUC0–∞ [3, 12]: 27.4 (0.42) ng·hour/mL
t1/2 ([3]; itraconazole phase, 15‐mg ibrutinib dose, geometric mean (geometric CV)): 8.1 (0.28) hour
Tmax ([3]; itraconazole phase, 15‐mg ibrutinib dose): 3 (1.5–4) hour
PCI‐45227/Ibrutinib AUC0‐∞ ratio ([3]; itraconazole phase, geometric mean (geometric CV)): 0.34 (0.28)
PCI‐45227/Ibrutinib AUC0–∞ ratio during itraconazole, relative to control ([3]; itraconazole vs placebo): 10 % of control
AUC0–23 hours [3, 13]: 235.2 (0.43) ng·hour/mL
AUC0–∞ [3, 13]: 262.8 (0.45) ng·hour/mL
t1/2 [3, 13]: 6.4 (0.27) hour
Tmax ([3]; placebo phase, 140‐mg ibrutinib dose): 3 (1.5–4) hour
PCI‐45227/Ibrutinib AUC0‐∞ ratio ([3]; placebo phase, geometric mean (geometric CV)): 3.4 (0.57)
AUC0‐∞ during itraconazole phase relative to placebo phase [3, 14]: 10%
Cmax during itraconazole phase relative to placebo phase [3, 14]: 7%

— PMC7070818 (Clinical and Translational Science, 2019)
